Source: ChEMBL document CHEMBL1201862, “PubChem BioAssay data set” (2004)
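A five-concentration, 48-hour dose response in 96-well plates underlies each endpoint, interpolated linearly between surrounding concentrations. GI50 is the concentration that inhibits growth by half.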 Activity calls are given as the source filed them. No stated cut-off is given here; in the data, active = GI50 up to about 1.1 µM and inactive = higher.

Tests used:
Experiment in all cases: NCI-60 cell line screen, 48 h
A498 = system: A498
CAKI-1 = system: CAKI-1
HCT-116 = system: HCT-116
HL-60 = system: HL-60
HOP-62 = system: HOP-62
K562 = system: K562
M14 = system: M14
MOLT-4 = system: MOLT-4
NCI-H226 = system: NCI-H226
NCI-H522 = system: NCI-H522
OVCAR-3 = system: OVCAR-3
OVCAR-4 = system: OVCAR-4
OVCAR-5 = system: OVCAR-5
RPMI-8226 = system: RPMI-8226
SF-268 = system: SF-268
SK-MEL-28 = system: SK-MEL-28
SNB-19 = system: SNB-19
SW-620 = system: SW-620
U-251 = system: U-251
UACC-62 = system: UACC-62

Compound | GI50 (A498) | GI50 (CAKI-1) | GI50 (HCT-116) | GI50 (HL-60) | GI50 (HOP-62) | GI50 (K562) | GI50 (M14) | GI50 (MOLT-4) | GI50 (NCI-H226) | GI50 (NCI-H522) | GI50 (OVCAR-3) | GI50 (OVCAR-4) | GI50 (OVCAR-5) | GI50 (RPMI-8226) | GI50 (SF-268) | GI50 (SK-MEL-28) | GI50 (SNB-19) | GI50 (SW-620) | GI50 (U-251) | GI50 (UACC-62)
CC(C)(C)OC(=O)NC(Cc1c[nH]cn1)C(=O)N1CCCC1C(N)=O (stereo not given) | > 100 µM (inactive) | > 100 µM (inactive) | > 100 µM (inactive) | > 100 µM (inactive) | > 100 µM (inactive) | > 100 µM (inactive) | > 100 µM (inactive) | > 100 µM (inactive) | 33.1 µM (inactive) | > 100 µM (inactive) | > 100 µM (inactive) | > 100 µM (inactive) | > 100 µM (inactive) | > 100 µM (inactive) | > 100 µM (inactive) | > 100 µM (inactive) | > 100 µM (inactive) | > 100 µM (inactive) | > 100 µM (inactive) | > 100 µM (inactive)
CNC(=O)N(C)COC | > 100 µM (inactive) | > 100 µM (inactive) | > 100 µM (inactive) | > 100 µM (inactive) | > 100 µM (inactive) |  | > 100 µM (inactive) | > 100 µM (inactive) | > 100 µM (inactive) | > 100 µM (inactive) | 32.3 µM (inactive) | > 100 µM (inactive) | > 100 µM (inactive) | > 100 µM (inactive) | > 100 µM (inactive) | > 100 µM (inactive) | > 100 µM (inactive) | > 100 µM (inactive) | > 100 µM (inactive) | > 100 µM (inactive)
C#CC[N+](CCO)(CCO)CCCCCCCCCCCCCCCCCC | 17.2 µM (inactive) | 5.87 µM (inactive) | 8.41 µM (inactive) | 1.55 µM (inactive) | 11.4 µM (inactive) | 5.24 µM (inactive) |  | 2.91 µM (inactive) | 12.6 µM (inactive) | 6.85 µM (inactive) | 13.5 µM (inactive) | 10.5 µM (inactive) | 14.8 µM (inactive) | 3.27 µM (inactive) | 8.69 µM (inactive) | 16.5 µM (inactive) | 5.92 µM (inactive) | 15.7 µM (inactive) | 6.47 µM (inactive) | 11 µM (inactive)
CC(=O)OC1C(O)C(C)OC(OC(=O)C2CCC3C(C2)OC2(CC(OC(=O)/C=C/c4ccccc4)C(C)CO2)C32CO2)C1OC1OC(C)C(O)C(O)C1O (stereo not given) | 0.0702 µM (active) | 2.08 µM (inactive) | 0.038 µM (active) | 0.0336 µM (active) | 0.0794 µM (active) | 0.0383 µM (active) |  | 0.0337 µM (active) | 0.0435 µM (active) | 0.0325 µM (active) | 0.0578 µM (active) | 0.0325 µM (active) | 0.091 µM (active) | 0.0361 µM (active) | 0.0362 µM (active) | 0.0355 µM (active) | 0.0399 µM (active) | 0.0504 µM (active) | 0.04 µM (active) | 0.039 µM (active)
CC1OC(CO)(n2cnc3c(N)ncnc32)C(O)C1O (stereo not given) | > 100 µM (inactive) | > 100 µM (inactive) | > 100 µM (inactive) | > 100 µM (inactive) | > 100 µM (inactive) | > 100 µM (inactive) |  | > 100 µM (inactive) | > 100 µM (inactive) | > 100 µM (inactive) | > 100 µM (inactive) | > 100 µM (inactive) | > 100 µM (inactive) | > 100 µM (inactive) | > 100 µM (inactive) | > 100 µM (inactive) | > 100 µM (inactive) | > 100 µM (inactive) | > 100 µM (inactive) | > 100 µM (inactive)
C=C1C(=O)OC2C=C(C)CC3C=C(CCC=C(C)CCC12)C(=O)O3 (stereo not given) | 73.1 µM (inactive) | 54.7 µM (inactive) | 33.1 µM (inactive) | 15.7 µM (inactive) | 114 µM (inactive) | 55.8 µM (inactive) |  | 54 µM (inactive) | 72.8 µM (inactive) | 17.3 µM (inactive) | 56.8 µM (inactive) | 72.3 µM (inactive) | 101 µM (inactive) | 44.9 µM (inactive) | 61.8 µM (inactive) | 58.1 µM (inactive) | 122 µM (inactive) | 31 µM (inactive) | 65 µM (inactive) | 54.2 µM (inactive)
